Where two headings read alike, the source gives them in different places. Starred links: 1 amine or outer side, 2 acyl side, 3 side chain; linkers in the order of their positions; H or OH if unused. Non-standard residues stand in square brackets, D forms with d. Groups on a side chain read outwards from the residue. *: point of attachment. C18 diacid = O=C(O)CCCCCCCCCCCCCCCCC(=O)*; αMePhe(2-F) = C[C@](N)(Cc1ccccc1F)C(=O)O; γGlu = O=C(O)[C@H](CCC(=O)[*:2])N[*:1]; αMe4Pal = C[C@](N)(Cc1ccncc1)C(=O)O; αMeY = C[C@](N)(Cc1ccc(O)cc1)C(=O)O; 4Pal = N[C@@H](Cc1ccncc1)C(=O)O; αMeL = CC(C)C[C@](C)(N)C(=O)O; αMeS = C[C@](N)(CO)C(=O)O; Orn = NCCC[C@H](N)C(=O)O; Aib = CC(C)(N)C(=O)O
Experiments:
Type in all cases: cell-based
hGcgR = hGcgR (Homo sapiens, UniProt P47871); assay: Functional cAMP activation in the presence of 0.1% casein (no HSA);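 note: intracellular cAMP rise after 30 min at 37 °C, read by HTRF against a cAMP standard curve, scaled from buffer only (0%) to maximal control ligand response (100%)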
hGcgR, sequence (P47871 26-477): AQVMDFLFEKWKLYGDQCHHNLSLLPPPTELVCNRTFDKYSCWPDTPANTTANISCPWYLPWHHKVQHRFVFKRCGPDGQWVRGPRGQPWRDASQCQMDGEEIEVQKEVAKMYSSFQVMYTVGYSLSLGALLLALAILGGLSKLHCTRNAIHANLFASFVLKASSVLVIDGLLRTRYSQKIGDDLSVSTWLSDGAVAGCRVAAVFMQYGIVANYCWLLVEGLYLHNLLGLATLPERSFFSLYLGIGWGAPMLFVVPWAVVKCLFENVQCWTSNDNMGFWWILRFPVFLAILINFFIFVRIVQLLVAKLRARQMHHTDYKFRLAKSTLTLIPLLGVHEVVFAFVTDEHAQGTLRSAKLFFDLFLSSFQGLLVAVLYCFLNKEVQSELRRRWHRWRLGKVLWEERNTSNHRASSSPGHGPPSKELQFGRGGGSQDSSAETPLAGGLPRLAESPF

hGIPR [1] = biological target: T1, hGIPR (Homo sapiens, UniProt P48546); assay: as above;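 note: intracellular cAMP rise after 30 min at 37 °C read by HTRF against a standard curve, scaled between buffer alone (0%) and top control ligand concentration (100%), four-parameter fit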
T1 sequence (P48546 22-466): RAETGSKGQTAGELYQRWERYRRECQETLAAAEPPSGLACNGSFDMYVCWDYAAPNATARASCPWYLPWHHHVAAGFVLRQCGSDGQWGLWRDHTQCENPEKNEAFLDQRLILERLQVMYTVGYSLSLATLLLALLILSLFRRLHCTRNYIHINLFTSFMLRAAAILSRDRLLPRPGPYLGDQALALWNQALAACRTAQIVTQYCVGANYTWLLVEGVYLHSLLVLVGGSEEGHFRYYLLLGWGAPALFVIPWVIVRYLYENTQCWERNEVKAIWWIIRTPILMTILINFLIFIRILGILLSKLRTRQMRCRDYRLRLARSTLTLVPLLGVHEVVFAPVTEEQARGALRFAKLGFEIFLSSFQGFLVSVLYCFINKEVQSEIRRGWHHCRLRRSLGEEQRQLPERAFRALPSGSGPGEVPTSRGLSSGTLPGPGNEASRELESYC

hGIPR [2] = biological target: T1, hGIPR; assay: Functional cAMP activity in the presence of 1% HSA; conditions: read-out: cAMP Rel EC50, hGIPR
hGLP-1R [3] = biological target: T2, hGLP-1R (Homo sapiens, UniProt P43220); assay: Functional cAMP activation in the presence of 0.1% casein (no HSA);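 note: intracellular cAMP rise after 30 min at 37 °C read by HTRF, normalized between buffer only (0%) and maximal control ligand (100%), four-parameter variable-slope fit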
T2 sequence (P43220 24-463): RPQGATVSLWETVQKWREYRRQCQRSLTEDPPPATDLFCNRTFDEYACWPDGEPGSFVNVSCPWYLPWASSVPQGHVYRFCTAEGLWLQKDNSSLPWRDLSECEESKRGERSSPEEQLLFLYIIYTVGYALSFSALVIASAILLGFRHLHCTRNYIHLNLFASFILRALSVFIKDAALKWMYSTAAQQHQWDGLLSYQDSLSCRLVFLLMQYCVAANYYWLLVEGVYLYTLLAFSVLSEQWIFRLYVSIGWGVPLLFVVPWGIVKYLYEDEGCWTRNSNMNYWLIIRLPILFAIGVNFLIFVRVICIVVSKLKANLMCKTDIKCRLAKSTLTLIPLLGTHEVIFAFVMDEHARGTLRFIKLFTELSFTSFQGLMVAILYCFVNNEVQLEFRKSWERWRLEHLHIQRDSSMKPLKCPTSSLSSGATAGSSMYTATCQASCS

human GcgR = human GcgR (Homo sapiens, UniProt P47871); assay: Functional cAMP activity in the presence of 1% HSA
human GcgR, sequence (P47871 26-477): as the sequence (P47871 26-477) above

hGLP-1R [4] = biological target: T2, hGLP-1R; assay: Functional cAMP activity in the presence of 1% HSA; conditions: read-out: cAMP Rel EC50, hGLP-1R
[5] = 0.1% casein, no HSA, geometric mean, read-out: Relative cAMP EC50, hGcgR
[6] = 0.1% casein, no HSA, geometric mean, read-out: Relative cAMP EC50, hGIPR
[7] = 0.1% casein, no HSA, geometric mean, read-out: Relative cAMP EC50, hGLP-1R
[8] = read-out: Relative cAMP EC50, hGcgR
[9] = read-out: Relative cAMP EC50, hGIPR
[10] = read-out: Relative cAMP EC50, hGLP-1R
[11] = in the presence of 0.1% casein (no HSA), geometric mean, read-out: Relative cAMP EC50, hGcgR
[12] = in the presence of 0.1% casein (no HSA), geometric mean, read-out: Relative cAMP EC50, hGIPR
[13] = in the presence of 0.1% casein (no HSA), geometric mean, read-out: Relative cAMP EC50, hGLP-1R

“H-Y[Aib]QGT[αMePhe(2-F)]TSD[4Pal][αMeS]I[αMeL]LD[Orn]K([γGlu-γGlu-C18 diacid])AQ[αMe4Pal]EFI[dE][αMeY]LIEGGPPS[Aib][Orn]PPP[Orn]GS-NH2 [Example 1226]” was tested, and the EC50 (hGcgR; [5]) was 1.65 nM, the EC50 (hGIPR [1]; [6]) was 0.00539 nM and the EC50 (hGIPR [2]) was 0.443 nM. For the same substance, the EC50 (hGLP-1R [3]; [7]) was 0.264 nM, the EC50 (human GcgR; read-out: cAMP Rel EC50, hGcgR) was 184 nM and the EC50 (hGLP-1R [4]) was 34.4 nM.

For “H-Y[Aib]QGT[αMePhe(2-F)]TSD[4Pal][αMeS]I[αMeL]LD[Orn]K([γGlu-γGlu-C18 diacid])AQ[αMe4Pal]EFI[dE][αMeY]LIEGGPPS[Aib][Orn]PPP[Orn]SE-NH2 [Example 1228]”, the EC50 (hGcgR; [5]) was 1.98 nM, the EC50 (hGIPR [1]; [6]) was 0.0067 nM and the EC50 (hGIPR [2]) was 0.522 nM. For the same substance, the EC50 (hGLP-1R [3]; [7]) was 0.379 nM, the EC50 (human GcgR; read-out: cAMP Rel EC50, hGcgR) was 185 nM and the EC50 (hGLP-1R [4]) was 39.1 nM.

Work on “H-Y[Aib]QGT[αMePhe(2-F)]TSD[4Pal][αMeS]I[αMeL]LD[Orn]K([γGlu-γGlu-C18 diacid])AQ[αMe4Pal]EFI[dE][αMeY]LIEGGPSSGAPPPEGGGEE-NH2 [Example 1220]” yielded an EC50 (hGcgR; [5]) of 1.57 nM, an EC50 (hGIPR [1]; [6]) of 0.0099 nM and an EC50 (hGIPR [2]) of 0.609 nM. The EC50 (hGLP-1R [3]; [7]) was 0.674 nM, the EC50 (human GcgR; read-out: cAMP Rel EC50, hGcgR) was 168 nM and the EC50 (hGLP-1R [4]) was 48.5 nM.

Substance “H-Y[Aib]QGT[αMePhe(2-F)]TSD[4Pal][αMeS]I[αMeL]LD[Orn]K([γGlu-γGlu-C18 diacid])AQ[αMe4Pal]EFI[dE][αMeY]LIEGGPSSGAPPPEGTGE-NH2 [Example 764]” has an EC50 (hGcgR) of 1.63 nM, an EC50 (hGIPR [1]) of 0.00626 nM and an EC50 (hGIPR [2]) of 0.649 nM. The EC50 (hGLP-1R [3]) was 0.289 nM, the EC50 (human GcgR) was 146 nM and the EC50 (hGLP-1R [4]) was 38.8 nM.

“H-Y[Aib]QGT[αMePhe(2-F)]TSD[4Pal][αMeS]I[αMeL]LD[Orn]K([γGlu-γGlu-C18 diacid])AQ[αMe4Pal]EFI[dE][αMeY]LIEGGPSSGAPPPSGGGEE-NH2 [Example 1218]” gave an EC50 (hGcgR; [5]) of 1.88 nM, an EC50 (hGIPR [1]; [6]) of 0.00839 nM and an EC50 (hGIPR [2]) of 0.626 nM. For the same substance, the EC50 (hGLP-1R [3]; [7]) was 0.58 nM, the EC50 (human GcgR; read-out: cAMP Rel EC50, hGcgR) was 185 nM and the EC50 (hGLP-1R [4]) was 48.7 nM.

In the case of “H-Y[Aib]QGT[αMePhe(2-F)]TSD[4Pal][αMeS]I[αMeL]LD[Orn]K([γGlu-γGlu-C18 diacid])AQ[αMe4Pal]EFI[dE][αMeY]LIEGGPSSGAPPPSGGGEEE-NH2 [Example 1219]”, the EC50 (hGcgR; [5]) is reported as 1.64 nM, the EC50 (hGIPR [1]; [6]) is reported as 0.0101 nM and the EC50 (hGIPR [2]) is reported as 0.629 nM. The EC50 (hGLP-1R [3]; [7]) was 0.624 nM, the EC50 (human GcgR; read-out: cAMP Rel EC50, hGcgR) was 168 nM and the EC50 (hGLP-1R [4]) was 46.8 nM.

For “H-Y[Aib]QGT[αMePhe(2-F)]TSD[4Pal][αMeS]I[αMeL]LD[Orn]K([γGlu-γGlu-C18 diacid])AQ[αMe4Pal]EFI[dE][αMeY]LIEGGPSSGAPPPSGSE-NH2 [Example 717]”, the EC50 (hGcgR; [8]) was 1.14 nM, the EC50 (hGIPR [1]; [9]) was 0.00721 nM and the EC50 (hGIPR [2]) was 0.561 nM. For the same substance, the EC50 (hGLP-1R [3]; [10]) was 0.283 nM, the EC50 (human GcgR; read-out: cAMP Rel EC50, hGcgR) was 130 nM and the EC50 (hGLP-1R [4]) was 21.4 nM.

“H-Y[Aib]QGT[αMePhe(2-F)]TSD[4Pal][αMeS]I[αMeL]LD[Orn]K([γGlu-γGlu-C18 diacid])AQ[αMe4Pal]EFI[dE][αMeY]LIEGGPSSGEPPPSGE-NH2 [Example 1151]” showed an EC50 (hGcgR; [11]) of 1.31 nM, an EC50 (hGIPR [1]; [12]) of 0.00339 nM and an EC50 (hGIPR [2]) of 0.287 nM. The EC50 (hGLP-1R [3]; [13]) was 0.262 nM, the EC50 (human GcgR; read-out: cAMP Rel EC50, hGcgR) was 206 nM and the EC50 (hGLP-1R [4]) was 40 nM.

For “H-Y[Aib]QGT[αMePhe(2-F)]TSD[4Pal][αMeS]I[αMeL]LD[Orn]K([γGlu-γGlu-C18 diacid])AQ[αMe4Pal]EFI[dE][αMeY]LIEGGPSSGEPPPSGGGE-NH2 [Example 744]”, the EC50 (hGcgR; [8]) was 1.04 nM, the EC50 (hGIPR [1]; [9]) was 0.00844 nM and the EC50 (hGIPR [2]) was 0.488 nM. For the same substance, the EC50 (hGLP-1R [3]; [10]) was 0.274 nM, the EC50 (human GcgR; read-out: cAMP Rel EC50, hGcgR) was 111 nM and the EC50 (hGLP-1R [4]) was 22.1 nM.

“H-Y[Aib]QGT[αMePhe(2-F)]TSD[4Pal][αMeS]I[αMeL]LD[Orn]K([γGlu-γGlu-C18 diacid])AQ[αMe4Pal]EFI[dE][αMeY]LIEGGPSSGEPPPSGS-NH2 [Example 715]” showed an EC50 (hGcgR; [8]) of 1 nM, an EC50 (hGIPR [1]; [9]) of 0.00644 nM and an EC50 (hGIPR [2]) of 0.51 nM. It also gave an EC50 (hGLP-1R [3]; [10]) of 0.267 nM, an EC50 (human GcgR; read-out: cAMP Rel EC50, hGcgR) of 126 nM and an EC50 (hGLP-1R [4]) of 19.7 nM.

“H-Y[Aib]QGT[αMePhe(2-F)]TSD[4Pal][αMeS]I[αMeL]LD[Orn]K([γGlu-γGlu-C18 diacid])AQ[αMe4Pal]EFI[dE][αMeY]LIEGGPSSGEPPPSGSE-NH2 [Example 716]” was tested, and the EC50 (hGcgR; [8]) was 1.12 nM, the EC50 (hGIPR [1]; [9]) was 0.00853 nM and the EC50 (hGIPR [2]) was 0.557 nM. The EC50 (hGLP-1R [3]; [10]) was 0.321 nM, the EC50 (human GcgR; read-out: cAMP Rel EC50, hGcgR) was 100 nM and the EC50 (hGLP-1R [4]) was 24.1 nM.

“H-Y[Aib]QGT[αMePhe(2-F)]TSD[4Pal][αMeS]I[αMeL]LD[Orn]K([γGlu-γGlu-C18 diacid])AQ[αMe4Pal]EFI[dE][αMeY]LVEGGPSSGAPPPSGE-NH2 [Example 1160]” showed an EC50 (hGcgR; [11]) of 2.41 nM, an EC50 (hGIPR [1]; [12]) of 0.00773 nM and an EC50 (hGIPR [2]) of 0.598 nM. For the same substance, the EC50 (hGLP-1R [3]; [13]) was 0.365 nM, the EC50 (human GcgR; read-out: cAMP Rel EC50, hGcgR) was 183 nM and the EC50 (hGLP-1R [4]) was 31.2 nM.

Source: US20240270821A1, “GIP/GLP1/GCG TRI-RECEPTOR AGONISTS AND USES THEREOF” (priority 2023, published 2024)
